We go through 23 molecules from patent US7803793B2, “Heterocyclic derived metalloprotease inhibitors” (Janssen Pharmaceutica NV, priority 2006, dated 2010).

By IC50 is commonly meant the concentration at which inhibition is half-maximal.

One test addresses T1, MMP-2 (Homo sapiens, UniProt P08253).
T1 construct: Human MMP-2 full length (aa 1-660)
T1 sequence (P08253 30-660): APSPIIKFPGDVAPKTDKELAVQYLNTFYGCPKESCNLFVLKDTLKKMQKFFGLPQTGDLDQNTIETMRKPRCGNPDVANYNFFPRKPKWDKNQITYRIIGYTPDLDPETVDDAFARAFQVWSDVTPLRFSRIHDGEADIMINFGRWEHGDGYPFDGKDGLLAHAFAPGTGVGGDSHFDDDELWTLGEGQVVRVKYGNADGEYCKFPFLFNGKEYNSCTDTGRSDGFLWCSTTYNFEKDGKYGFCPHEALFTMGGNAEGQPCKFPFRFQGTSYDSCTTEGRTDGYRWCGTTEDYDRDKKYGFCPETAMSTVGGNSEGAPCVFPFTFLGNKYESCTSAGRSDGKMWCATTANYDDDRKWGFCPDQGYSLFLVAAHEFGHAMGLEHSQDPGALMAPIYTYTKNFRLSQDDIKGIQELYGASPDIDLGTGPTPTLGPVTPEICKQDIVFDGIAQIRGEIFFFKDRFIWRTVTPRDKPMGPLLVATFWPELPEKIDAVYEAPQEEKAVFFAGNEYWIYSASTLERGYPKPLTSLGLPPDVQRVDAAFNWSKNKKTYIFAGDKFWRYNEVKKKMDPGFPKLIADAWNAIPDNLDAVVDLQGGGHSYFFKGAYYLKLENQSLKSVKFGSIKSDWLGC
In words: MMP enzymatic assay (Trupoint peptide), MMP-2. It is filed as biochemical. The method, then: [formula] • 1) Prepare appropriate 1×MMP assay buffer from 10× stock. […] Need to prepare a 2.5× concentration stock (2.5 μM) to achieve this concentration in 50 μl. Dilute compound to 2.5 mM in 100% DMSO (a 1:40 dilution), then dilute the 2.5 mM compound to 2.5 μM (1:1000) into 1× assay buffer. Make 1 ml 2.5 μM compound in assay buffer. • 4) Fill the rows B through P of a 384-well plate with assay buffer+0.1% DMSO. • 5) Add 30 ul of the 2.5 μM compound in assay buffer to the top row of the plate, doing each compound in triplicate. The plate setup should be as follows, using GM6001 as plate reference compound:
• 6) Serially dilute 10 μl down the plate to achieve 1:3 dilutions in subsequent wells. After each dilution, change pipette tips to avoid compound carryover. Discard the remaining 10 μl after diluting into the final row. • 7) Prepare enzyme dilutions at 2.5× of final desired concentration (see below). Will need 10 ml enzyme solution per plate. Add enzyme to plate, 20 μl per well. Incubate 1 hr.
• 8) Dilute the 500 μM Trupoint peptide 1:1000 into assay buffer to achieve a 5× working stock of 500 nM. Prepare 5 ml total per plate. Add 10 ul of substrate to each well to achieve a final concentration of 100 nM in well. Also prepare background subtraction wells by adding 10 μl 5× substrate to 40 μl assay buffer per well, typically do ˜32 wells. • 9) Incubate assay at room temperature for 15 min. Read in plate reader.
(§1) Analysis Specifications • Calculate average background value from substrate/assay buffer wells • Subtract this from entire plate • Calculate average of DMSO wells for each enzyme. This is the positive control, 100% value. • For each well, calculate percent of control by dividing well value by the average DMSO value obtained above. • Paste percent of control values into Graphpad Prism 4.0.

In a further test the target is T2, MMP-9 (Homo sapiens, UniProt P14780).
T2 construct: Human MMP-9 catalytic domain (aa 107-446)
Briefly: MMP enzymatic assay (Trupoint peptide), MMP-9. The class given is biochemical. The method, then: [formula] • 1) Prepare appropriate 1×MMP assay buffer from 10× stock. […] The plate setup should be as follows, using GM6001 as plate reference compound:
• 6) Serially dilute 10 μl down the plate to achieve 1:3 dilutions in subsequent wells. After each dilution, change pipette tips to avoid compound carryover. […] Will need 10 ml enzyme solution per plate. Add enzyme to plate, 20 μl per well. Incubate 1 hr.
Prepare 5 ml total per plate. Add 10 ul of substrate to each well to achieve a final concentration of 100 nM in well. […] Read in plate reader.
as §1

Read-outs that look alike come from different tables or passages of the source.

T2 sequence (P14780 107-446): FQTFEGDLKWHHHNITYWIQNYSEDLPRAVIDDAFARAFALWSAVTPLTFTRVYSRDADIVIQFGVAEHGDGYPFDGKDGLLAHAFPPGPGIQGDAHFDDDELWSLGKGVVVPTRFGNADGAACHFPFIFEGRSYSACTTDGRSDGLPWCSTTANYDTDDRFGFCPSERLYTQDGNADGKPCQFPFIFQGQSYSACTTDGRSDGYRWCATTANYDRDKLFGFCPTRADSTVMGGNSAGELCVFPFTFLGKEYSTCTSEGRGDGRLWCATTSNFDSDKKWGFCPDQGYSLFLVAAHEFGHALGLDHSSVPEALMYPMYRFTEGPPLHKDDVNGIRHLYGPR

In the case of `CC1=CC[C@@H](NS(=O)(=O)c2ccc(Oc3ccc(Cl)cc3)cc2)C(=O)N(O)C1` [Compound 20, (R)-4-(4-Chloro-phenoxy)-N-(1-hydroxy-6-methyl-2-oxo-2,3,4,7-tetrahydro-1H-azepin-3-yl)-benzenesulfonamide], the IC50 is 0.00072 µM at MMP-2 and 0.00068 µM against MMP-9.
With `CC1CN(CC2=CC[C@@H](NS(=O)(=O)c3ccc(Oc4ccc(Cl)cc4)cc3)C(=O)N(O)C2)CC(C)O1` (stereo partly drawn) [Compound 21, (R)-4-(4-Chloro-phenoxy)-N-[6-(2,6-dimethyl-morpholin-4-ylmethyl)-1-hydroxy-2-oxo-2,3,4,7-tetrahydro-1H-azepin-3-yl]-benzenesulfonamide], the IC50 at MMP-2 amounted to 0.00125 µM; against MMP-9, 0.00089 µM.
In the case of `O=c1c(N(Cc2ccccc2)S(=O)(=O)c2ccc(Oc3ccccc3)cc2)cccn1O` [Compound 22, N-Benzyl-N-(1-hydroxy-2-oxo-1,2-dihydro-pyridin-3-yl)-4-phenoxy-benzene-sulfonamide], the figures for the half-maximal inhibitory concentration (IC50) at MMP-2 (read-out: MMP-2 nM IC50) and against MMP-9 were 0.0224 µM and 0.0334 µM, respectively.
Turning to `O=S(=O)(c1ccc(Oc2ccccc2)cc1)N(Cc1ccccc1)c1cccn(O)c1=S` [Compound 23, N-Benzyl-N-(1-hydroxy-2-thioxo-1,2-dihydro-pyridin-3-yl)-4-phenoxy-benzene-sulfonamide], the IC50 on MMP-2 (read-out: MMP-2 nM IC50) worked out at 4.59 µM; against MMP-9 it was 0.693 µM.
With `CC(C)CN(c1cccn(O)c1=O)S(=O)(=O)c1ccc(Oc2ccccc2)cc1` [Compound 24, N-(1-Hydroxy-2-oxo-1,2-dihydro-pyridin-3-yl)-N-isobutyl-4-phenoxy-benzenesulfonamide], the IC50 was determined as 0.041 µM against MMP-2 and 0.0575 µM against MMP-9.
For `CN(c1cccn(O)c1=O)S(=O)(=O)c1ccc(Oc2ccccc2)cc1` [Compound 25, N-(1-Hydroxy-2-oxo-1,2-dihydro-pyridin-3-yl)-N-methyl-4-phenoxy-benzene-sulfonamide], the IC50 against MMP-2 came out at 0.00152 µM; against MMP-9, 0.00141 µM.
Turning to `CCN(c1cccn(O)c1=O)S(=O)(=O)c1ccc(Oc2ccc(C)cc2)cc1` [Compound 27, N-Ethyl-N-(1-hydroxy-2-oxo-1,2-dihydro-pyridin-3-yl)-4-p-tolyloxy-benzene-sulfonamide], the results for the IC50 on MMP-2 and against MMP-9 were 0.0065 µM and 0.0036 µM, respectively.
Take `CN(c1cccn(O)c1=O)S(=O)(=O)c1ccc(Oc2ccc(Cl)cc2)cc1` [Compound 28, 4-(4-Chloro-phenoxy)-N-(1-hydroxy-2-oxo-1,2-dihydro-pyridin-3-yl)-N-methyl-benzenesulfonamide]: the 50% inhibitory concentration (IC50) was 0.0069 µM against MMP-2 and 0.00328 µM on MMP-9.
For `COc1ccc(Oc2ccc(S(=O)(=O)N(C)c3cccn(O)c3=O)cc2)cc1` [Compound 29, N-(1-Hydroxy-2-oxo-1,2-dihydro-pyridin-3-yl)-4-(4-methoxy-phenoxy)-N-methyl-benzenesulfonamide], the half-maximal inhibitory concentration (IC50) on MMP-2 (read-out: MMP-2 nM IC50) was 0.0056 µM; against MMP-9, 0.00087 µM.
Take `Cc1ccc(N(C)S(=O)(=O)c2ccc(Oc3ccc(Cl)cc3)cc2)c(=O)n1O` [Compound 33, 4-(4-Chloro-phenoxy)-N-(1-hydroxy-6-methyl-2-oxo-1,2-dihydro-pyridin-3-yl)-N-methyl-benzenesulfonamide]: the half-inhibitory concentration (IC50) at MMP-2 (read-out: MMP-2 nM IC50) was found to be 0.0664 µM; against MMP-9, 0.0349 µM.
For `Cc1ccc(Oc2ccc(S(=O)(=O)N(CCN3CCOCC3)c3cccn(O)c3=O)cc2)cc1` [Compound 34, N-(1-Hydroxy-2-oxo-1,2-dihydro-pyridin-3-yl)-N-(2-morpholin-4-yl-ethyl)-4-p-tolyloxy-benzenesulfonamide], the IC50 amounted to 0.0035 µM on MMP-2 and 0.00241 µM against MMP-9.
As for `O=C(CN(c1cccn(O)c1=O)S(=O)(=O)c1ccc(Oc2ccc(Cl)cc2)cc1)N1CCOCC1` [Compound 35, 4-(4-Chloro-phenoxy)-N-(1-hydroxy-2-oxo-1,2-dihydro-pyridin-3-yl)-N-(2-morpholin-4-yl-2-oxo-ethyl)-benzenesulfonamide], the figures for the IC50 on MMP-2 (read-out: MMP-2 nM IC50) and against MMP-9 were 0.00493 µM and 0.00484 µM, respectively.
As for `CN(c1cccn(O)c1=O)S(=O)(=O)c1ccc(-c2ccc(Cl)cc2)cc1` [Compound 36, 4′-Chloro-biphenyl-4-sulfonic acid (1-hydroxy-2-oxo-1,2-dihydro-pyridin-3-yl)-methyl-amide], the values for the IC50 on MMP-2 and against MMP-9 were 1.3 µM and 1.8 µM, respectively.
Turning to `O=c1c(NS(=O)(=O)c2ccc(Oc3ccc(Cl)cc3)cc2)cccn1O` [Compound 37, 4-(4-Chloro-phenoxy)-N-(1-hydroxy-2-oxo-1,2-dihydro-pyridin-3-yl)-benzene-sulfonamide], the values for the IC50 at MMP-2 (read-out: MMP-2 nM IC50) and on MMP-9 were 0.242 µM and 0.316 µM, respectively.
`Cc1ccc(Oc2ccc(S(=O)(=O)Nc3cccn(O)c3=O)cc2)cc1` [Compound 38]: the 50% inhibitory concentration (IC50) on MMP-2 is 0.0498 µM; against MMP-9, 0.0646 µM.
For `CN(c1cccn(O)c1=O)S(=O)(=O)c1ccc(Oc2ccc(OC(F)(F)F)cc2)cc1` [Compound 39, N-(1-Hydroxy-2-oxo-1,2-dihydro-pyridin-3-yl)-N-methyl-4-(4-trifluoro-methoxy-phenoxy)-benzenesulfonamide], the IC50 on MMP-2 (read-out: MMP-2 nM IC50) was determined as 0.00575 µM; against MMP-9, 0.00185 µM.
`O=c1c(NS(=O)(=O)c2ccc(-c3ccc(Cl)cc3)cc2)cccn1O` [Compound 40, 4′-Chloro-biphenyl-4-sulfonic acid (1-hydroxy-2-oxo-1,2-dihydro-pyridin-3-yl)-amide]: the IC50 against MMP-2 and at MMP-9 was more than 1 µM in each case.
As to `O=c1c(COc2ccc(-c3ccc(Br)cc3)cc2)cccn1O` [Compound 41, 3-(4′-Bromo-biphenyl-4-yloxymethyl)-1-hydroxy-1H-pyridin-2-one], the concentration for half-maximal inhibition (IC50) against MMP-2 is more than 10 µM; on MMP-9 it was 7.14 µM.
For `Cc1ccc(Oc2ccc(N(Cc3cccn(O)c3=O)S(C)(=O)=O)cc2)cc1` [Compound 42, N-(1-Hydroxy-2-oxo-1,2-dihydro-pyridin-3-ylmethyl)-N-(4-p-tolyloxy-phenyl)-methanesulfonamide] the same measures were 0.208 µM and 0.0469 µM.
On to `CS(=O)(=O)N(Cc1cccn(O)c1=O)c1ccc(Oc2ccc(C(F)(F)F)cc2)cc1` [Compound 43, N-(1-Hydroxy-2-oxo-1,2-dihydro-pyridin-3-ylmethyl)-N-[4-(4-trifluoromethyl-phenoxy)-phenyl]-methanesulfonamide], for which the concentration for half-maximal inhibition (IC50) on MMP-2 amounted to 0.491 µM; on MMP-9, 0.233 µM.
Turning to `CS(=O)(=O)N(Cc1cccn(O)c1=O)c1ccc(Oc2ccc(Cl)cc2)cc1` [Compound 44, N-[4-(4-Chloro-phenoxy)-phenyl]-N-(1-hydroxy-2-oxo-1,2-dihydro-pyridin-3-ylmethyl)-methanesulfonamide], the concentration for half-maximal inhibition (IC50) on MMP-2 stood at 0.406 µM; on MMP-9, 0.126 µM.
With `CCCCc1ccc(N(Cc2cccn(O)c2=O)S(C)(=O)=O)cc1` [Compound 45, N-(4-Butyl-phenyl)-N-(1-hydroxy-2-oxo-1,2-dihydro-pyridin-3-ylmethyl)-methane-sulfonamide], the IC50 against MMP-2 and on MMP-9 was more than 1 µM throughout.
Turning to `CCCCOc1ccc(N(Cc2cccn(O)c2=O)S(C)(=O)=O)cc1` [Compound 46, N-(4-Butoxy-phenyl)-N-(1-hydroxy-2-oxo-1,2-dihydro-pyridin-3-ylmethyl)-methanesulfonamide], the half-maximal inhibitory concentration (IC50) on MMP-2 and on MMP-9 was more than 1 µM in each case.
